Assay results published in US6228843A (priority 2000, dated 2001).

Columns and labels:
[1] = tested on: adult bovine pulmonary artery smooth muscle cells; type: cell-based
Procedure: (§1) Hypoxic growth was induced by priming with the PKC activator, 10 nM PMA. Proliferative response was measured by ^3 H-thymidine incorporation and cell counts. Isozyme expression was measured by Western blot.

PKC-α and β = test: PKC activity in PA SMC preparation; type: cell-based, bovine
PKC-α [2] = target: T1, PKC-α (Mus musculus, UniProt P20444); test: PKC-α protein levels in whole lung homogenates of treated mice; type: in vivo; settings: chronic treatment of mice
T1 construct: PKC-α protein levels in whole lung homogenates; from tissue; host or cells: whole lung homogenates of treated mice

PKC βI = target: T2, PKC βI (Bos taurus, UniProt P05126); test: PKC isozyme expression by Western blot: βI; type: cell-based, bovine; settings: adult PA SMC
T2 construct: isozyme expressed in these adult cells (βI); endogenous in cells; host or cells: adult bovine pulmonary artery smooth muscle cells (PA SMC)
T2 sequence (P05126 whole entry): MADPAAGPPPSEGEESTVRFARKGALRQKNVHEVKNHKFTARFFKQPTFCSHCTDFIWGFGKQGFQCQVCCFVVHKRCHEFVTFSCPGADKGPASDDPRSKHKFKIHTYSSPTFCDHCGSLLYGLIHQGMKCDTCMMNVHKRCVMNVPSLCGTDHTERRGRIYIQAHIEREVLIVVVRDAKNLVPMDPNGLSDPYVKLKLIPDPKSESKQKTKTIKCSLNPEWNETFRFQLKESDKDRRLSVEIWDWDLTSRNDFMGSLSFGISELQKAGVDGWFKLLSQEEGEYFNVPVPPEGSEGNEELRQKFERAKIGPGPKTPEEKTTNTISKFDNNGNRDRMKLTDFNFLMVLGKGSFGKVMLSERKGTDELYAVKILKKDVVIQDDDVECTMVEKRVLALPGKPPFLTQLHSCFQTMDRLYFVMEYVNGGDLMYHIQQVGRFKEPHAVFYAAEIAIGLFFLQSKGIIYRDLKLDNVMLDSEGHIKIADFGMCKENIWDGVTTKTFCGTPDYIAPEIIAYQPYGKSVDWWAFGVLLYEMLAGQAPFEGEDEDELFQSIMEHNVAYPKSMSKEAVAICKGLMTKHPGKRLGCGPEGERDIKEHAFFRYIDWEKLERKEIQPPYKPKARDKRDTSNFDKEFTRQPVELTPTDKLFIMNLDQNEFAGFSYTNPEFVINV
Procedure: […]. Hypoxic growth was induced by priming with the PKC activator, 10 nM PMA. Proliferative response was measured by ^3 H-thymidine incorporation and cell counts. Isozyme expression was measured by Western blot. […]. […] […].

PKC-α [3] = target: T3, PKC-α (Bos taurus, UniProt P04409); test: PKC isozyme expression by Western blot: PKC-α degradation; type: cell-based, bovine
T3 construct: proteolytic degradation of PKC-α in smooth muscle cells; endogenous in cells; host or cells: adult bovine pulmonary artery smooth muscle cells (PA SMC)
Procedure: as §1

Cn1c2ccccc2c2c3c(c4c5ccccc5n(CCC#N)c4c21)CNC3=O [Go6976]
hypoxia-induced PA SMC proliferation (FIG. 4) [1]: inhibits hypoxia-induced PA SMC proliferation | activity of PKC-α and β (FIG. 4) (PKC-α and β): inhibits activity of PKC-α and β

CCCC=CC=CC(=O)OC1C(=CC(=O)OC)CC2CC(C(C)O)OC(=O)CC(O)CC3CC(OC(C)=O)C(C)(C)C(O)(CC4CC(=CC(=O)OC)CC(C=CC(C)(C)C1(O)O2)O4)O3 (stereo not drawn) [bryostatin-1]
PKC-α protein levels in whole lung homogenates (FIG. 8) (PKC-α [2]): decreases PKC-α protein levels | degradation of Ca2+-dependent isozyme βI (PKC βI): No degradation | threshold concentration to induce PKC-α degradation (PKC-α [3]): 10 nM | time at which PKC-α degradation is complete (PKC-α [3]; 100 nM): ≤ 24 h | time at which PKC-α degradation is first detectable (PKC-α [3]; 100 nM): ≤ 1 h | dose dependence of PKC-α degradation and hypoxic growth (FIG. 6) (PKC-α [3]; bovine PA SMC): dose-dependent effect | time dependence of PKC-α degradation (FIG. 5) (PKC-α [3]; bovine PA SMC): time dependent
